The melting point is the temperature, or range, at which the solid turns liquid.

This note sets out measurements from patent US20040087798A1, “Novel amide compounds” (priority 2000, published 2004).

As for `N=C(Nc1cccc(NC(=O)Cc2ccccc2)c1)c1ccccc1` [Example 1, N-[3-(iminobenzylamino)phenyl]phenylacetamide], the melting point was 213 to 214 °C. On to `N=C(Nc1cccc(NC(=O)C=Cc2ccccc2)c1)c1ccccc1` [Example 2, N-[3-(iminobenzylamino)phenyl]cinnamamide], for which the melting point was 115 to 117 °C. Compound `Cc1ncccc1Oc1ccc(NC(=O)/C=C/c2ccccc2C(F)(F)F)cn1` [Example 9, (2E)-N-[6-(2-methyl-3-pyridyloxy)pyridin-3-yl]-3-[2-(trifluoromethyl)phenyl]-2-propenamide] yielded a melting point of 214 to 216 °C. `COc1ccccc1/C=C/C(=O)Nc1cccc(NC(=N)c2ccccc2)c1` [Example 14, (2E)-N-[3-(iminobenzylamino)phenyl]-3-(2-methoxyphenyl)-2-propenamide]: the melting point was 219 to 221 °C.

In the case of `N=C(Nc1ccc(F)c(NC(=O)/C=C/c2ccccc2Cl)c1)c1cccs1` [Example 16, (2E)-N-[2-fluoro-5-[[imino(2-thienyl)methyl]amino]phenyl]-3-(2-chlorophenyl)-2 propenamide], the melting point lay in the range of 215 to 216 °C.

`N=C(Nc1ccc(F)c(NC(=O)/C=C/c2ccccc2Cl)c1)c1ccccc1` [Example 17, (2E)-N-[2-fluoro-5-(iminobenzylamino)phenyl]-3-(2-chlorophenyl)-2-propenamide]: the melting point was in the range of 189 to 191 °C. For `COc1ccc(Cl)cc1C(=N)Nc1ccc(F)c(NC(=O)/C=C/c2ccccc2Cl)c1` [Example 18, (2E)-N-[5-[[(5-chloro-2-methoxyphenyl)(imino)methyl]amino]-2-fluorophenyl]-3-(2-chlorophenyl)-2-propenamide], the melting point was in the range of 229 to 230 °C.

Compound `COc1ccc(F)cc1C(=N)Nc1cc(Cl)cc(NC(=O)/C=C/c2ccccc2Cl)c1` [Example 23, (2E)-N-[3-chloro-5-[[(5-fluoro-2-methoxyphenyl)(imino)methyl]amino]phenyl]-3-(2-chlorophenyl)-2-propenamide] registered a melting point of 238 to 239 °C. Take `COc1ccc(Cl)cc1C(=N)Nc1cc(Cl)cc(NC(=O)/C=C/c2ccccc2Cl)c1` [Example 24, (2E)-N-[3-chloro-5-[[(5-chloro-2-methoxyphenyl)(imino)methyl]amino]phenyl]-3-(2-chlorophenyl)-2-propenamide]: the melting point is 226 to 228 °C.

`CC(C)c1ccc(NC(=N)c2cccc(NC(=O)C=Cc3ccccc3Cl)c2)cc1` [Example 27, N-[3-[imino(4-isopropylanilino)methyl]phenyl}-2-chlorocinnamamide] showed a melting point of 112 to 118 °C.

Take `COc1ccc(F)cc1C(=N)Nc1cc(Cl)cc(NC(=O)/C=C/c2ccccc2C(F)(F)F)c1` [Example 30, (2E)-N-[3-chloro-5-[[(5-fluoro-2-methoxyphenyl)(imino)methyl]amino]phenyl]-3-[2-(trifluoromethyl)phenyl]-2-propenamide]: the melting point is 213 to 214 °C. As for `N=C(Nc1cc(Cl)cc(NC(=O)/C=C/c2ccccc2Cl)c1)c1ccccc1` [Example 31, (2E)-N-[3-chloro-5-(iminobenzylamino)phenyl]-3-(2-chlorophenyl)-2-propenamide], the melting point was in the range of 105 to 115 °C. The result for `N=C(Nc1cc(NC(=O)/C=C/c2ccccc2Cl)cc(C(F)(F)F)c1)c1cccs1` [Example 32, (2E)-N-[3-trifluoromethyl-5-[[imino(2-thienyl)methyl]amino]phenyl]-3-(2-chlorophenyl)-2-propenamide] reads 206 to 208 °C.

On to `N=C(Nc1cc(Cl)cc(NC(=O)/C=C/c2ccccc2Cl)c1)c1cccs1` [Example 33, (2E)-N-[3-chloro-5-[[imino(2-thienyl)methyl]amino]phenyl]-3-(2-chlorophenyl)-2-propenamide], for which the melting point was in the range of 123 to 124 °C. The result for `N=C(Nc1cc(Cl)cc(NC(=O)/C=C/c2ccccc2C(F)(F)F)c1)c1cccs1` [Example 34, (2E)-N-[3-chloro-5-[[imino(2-thienyl)methyl]amino]phenyl]-3-[2-(trifluoromethyl)phenyl]-2-propenamide] reads 178 to 179 °C; that for `N=C(Nc1cc(Cl)cc(NC(=O)/C=C/c2ccccc2C(F)(F)F)c1)c1ccccc1` [Example 35, (2E)-N-[3-chloro-5-(iminobenzylamino)phenyl]-3-[2-(trifluoromethyl)phenyl]-2-propenamide], 137 to 139 °C; that for `N#Cc1cc(NC(=N)c2ccccc2)cc(NC(=O)/C=C/c2ccccc2C(F)(F)F)c1` [Example 36, (2E)-N-[3-cyano-5-(iminobenzylamino)phenyl]-3-[2-(trifluoromethyl)phenyl]-2-propenamide], 181 to 182 °C. The result for `Cc1ccc(/C=C/C(=O)Nc2cccc(NC(=N)c3ccccc3)c2)cc1` [Example 38, (2E)-N-[3 (iminobenzylamino)phenyl]-3-(4-methylphenyl)-2-propenamide] reads 147 to 149 °C; that for `Cc1cccc(/C=C/C(=O)Nc2cccc(NC(=N)c3ccccc3)c2)c1` [Example 39, (2E)-N-[3-(iminobenzylamino)phenyl]-3-(3-methylphenyl)-2-propenamide], 179 to 180 °C. With `Cc1ccccc1/C=C/C(=O)Nc1cccc(NC(=N)c2ccccc2)c1` [Example 40, (2E)-N-[3 (iminobenzylamino)phenyl]-3-(2-methylphenyl)-2-propenamide], the melting point fell in the range of 109 to 114 °C. `Cn1c(NCc2cccc(NC(=O)C=Cc3ccccc3Cl)c2)nc2ccccc21` [Example 43, N-[3-[[(1-methyl-1H-benzimidazol-2-yl)amino]methyl]phenyl]-3-(2-chlorophenyl)-2-propenamide] gave a melting point of 188 to 191 °C.

With `O=C(C=Cc1ccccc1Cl)Nc1ccc(NCc2ccccn2)nc1` [Example 44, N-[6-[(2-pyridylmethyl)amino]-3-pyridyl]-3-(2-chlorophenyl)-2-propenamide], the melting point lay within 164 to 165 °C. In the case of `Cc1ncccc1Oc1ccc(NC(=O)C=Cc2ccccc2Cl)cn1` [Example 45, N-[6-[(2-methyl-3-pyridyl)oxy]-3-pyridyl]-3-(2-chlorophenyl)-2-propenamide] it was 187 to 189 °C. As for `N=C(Nc1cccc(NC(=O)/C=C/c2ccccc2C(F)(F)F)c1)c1ccccc1` [Example 46, (2E)-N-[3-(iminobenzylamino)phenyl]-3-[2-(trifluoromethyl)phenyl]-2-propenamide], the melting point fell in the range of 82 to 84 °C. Compound `N=C(Nc1cccc(NC(=O)/C=C/c2ccc(Cl)cc2)c1)c1ccccc1` [Example 47, (2E)-N-[3-(iminobenzylamino)phenyl]-3-(4-chlorophenyl)-2-propenamide] gave a melting point of 109 to 110 °C. The compound `COc1cccc(/C=C/C(=O)Nc2cccc(NC(=N)c3ccccc3)c2)c1` [Example 48, (2E)-N-[3(iminobenzylamino)phenyl]-3-(3-methoxyphenyl)-2-propenamide] had a melting point of 148 to 149 °C. Regarding `O=C(C=Cc1ccccc1Cl)Nc1cccc(CNc2ccc3ccccc3n2)c1` [Example 50, N-[3-[(2-quinolylamino)methyl]phenyl]-3-(2-chlorophenyl)-2-propenamide], the melting point was 170 to 171 °C.
